According to US7507739B2, “6-[(substituted)phenyl]triazolopyrimidines as anticancer agents” (Wyeth, priority 2003, dated 2009):
Marks after values point to notes of the source that are not given here.

Columns and labels:
[1] = system: LOX Human Melanoma; test: Human tumor xenograft test, LOX; type: in vivo, athymic mice; settings: for tumor growth inhibition (activity call): LOX melanoma; for T/C on day 0 / T/C on day 7 / T/C on day 13: LOX, days 1, 5, 9, 13
Method: The ability of compounds of this invention to inhibit tumor growth in animals is studied in the athymic mouse xenograft standard pharmacological test. Female nu/nu mice in an outbred albino background are obtained from Charles River Laboratories (Wilmington, Mass.). Animals are injected subcutaneously on the flank with the desired tumor cell suspension. Several days later, mice with tumors of approximately 150 mm^3 are selected from those injected (staged) and randomly distributed into groups of 5-10. The day of staging is called day 0. Compounds of the invention, usually formulated in saline (exceptions are noted in tables), are administered to animals by intravenous injection or oral gavage on various schedules starting on day 0 or 1, as noted in the tables. The control group in each experiment is dosed with vehicle on the same schedule. Tumor size is measured every 3-7 days with calipers in two orthogonal dimensions, and tumor volume is calculated from the formula volume=[(length×width^2)/2].
Tumor/Control (T/C) is obtained by dividing the mean tumor volume of the treated group by the mean tumor volume of the control group on each measurement day. A treatment dose is defined as active if it produced a statistically significant T/C of 0.50 or less. A p value≦0.05, determined by one-side Student's t-test, is required for statistical significance. A treatment dose is defined as toxic if more than 10% of the animals died from a compound-related toxicity.

[2] = system: MAP-rich tubulin; test: Tubulin polymerization test with MAP-rich tubulin; type: biochemical, bovine; settings: 0.3 μM compound, 20 min, fold enhancement over control
In short: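 Bovine brain MAP-rich tubulin (1.3 mg/mL) in PEM buffer pH 6.9 with 1 mM GTP, compounds at 0.3 μM final (0.3% DMSO), 24° for 60 min. Turbidity read at 340 nm each minute, baseline-subtracted; mean A340 at 20 min divided by solvent control gives fold enhancement.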

[3] = 1 mg/kg intravenously on days 1, 5, 9, and 13
[4] = 6 and 3 mg/kg intravenously on days 1, 5, 9, and 13

C[C@H](Nc1c(-c2c(F)cc(OCCCN(C)C)cc2F)c(Cl)nc2ncnn12)C(F)(F)F.Cl [Example 1a, 5-chloro-6-{4-[3-(dimethylamino)propoxy]-2,6-difluorophenyl}-N-[(1S)-2,2,2-trifluoro-1-methylethyl][1,2,4]triazolo[1,5-a]pyrimidin-7-amine hydrogen chloride Salt]
tumor growth inhibition (activity call) [1, 3]: not at 1 mg/kg | tumor growth inhibition (activity call) [1, 4]: active | T/C on day 0 ([1]; 1 mg/kg IV): 1.00 | T/C on day 7 ([1]; 1 mg/kg IV): 0.80 | T/C on day 13 ([1]; 1 mg/kg IV): 1.02 | T/C on day 0 ([1]; 3 mg/kg IV): 1.00 | T/C on day 7 ([1]; 3 mg/kg IV): 0.13** | T/C on day 13 ([1]; 3 mg/kg IV): 0.17* | T/C on day 0 ([1]; 6 mg/kg IV): 1.00 | T/C on day 7 ([1]; 6 mg/kg IV): 0.12** | T/C on day 13 ([1]; 6 mg/kg IV): 0.07** | A340 Compound/A340 Control [2]: 6.1

CNCCCOc1cc(F)c(-c2c(Cl)nc3ncnn3c2N[C@@H](C)C(F)(F)F)c(F)c1.Cl [Example 2a, 5-Chloro-6-{2,6-difluoro-4-[3-(methylamino)propoxy]phenyl}-N-[(1S)-2,2,2-trifluoro-1-methylethyl][1,2,4]triazolo[1,5-a]pyrimidin-7-amine hydrogen chloride]
tumor growth inhibition (activity call) [1, 3]: not at 1 mg/kg | tumor growth inhibition (activity call) [1, 4]: active | T/C on day 0 ([1]; 1 mg/kg IV): 1.00 | T/C on day 7 ([1]; 1 mg/kg IV): 0.81 | T/C on day 13 ([1]; 1 mg/kg IV): 0.95 | T/C on day 0 ([1]; 3 mg/kg IV): 1.00 | T/C on day 7 ([1]; 3 mg/kg IV): 0.31** | T/C on day 13 ([1]; 3 mg/kg IV): 0.36 | T/C on day 0 ([1]; 6 mg/kg IV): 1.00 | T/C on day 7 ([1]; 6 mg/kg IV): 0.17** | T/C on day 13 ([1]; 6 mg/kg IV): 0.12**

CNCCCOc1cc(F)c(-c2c(Cl)nc3ncnn3c2NCC(F)(F)F)c(F)c1.Cl [Example 3a, 5-Chloro-6-{2,6-difluoro-4-[3-(methylamino)propoxy]phenyl}-N-(2,2,2-trifluoroethyl)[1,2,4]triazolo[1,5-a]pyrimidin-7-amine hydrogen chloride Salt]
tumor growth inhibition (activity call) [1, 3]: not at 1 mg/kg | tumor growth inhibition (activity call) [1, 4]: active | T/C on day 0 ([1]; 1 mg/kg IV): 1.00 | T/C on day 7 ([1]; 1 mg/kg IV): 0.77 | T/C on day 13 ([1]; 1 mg/kg IV): 0.85 | T/C on day 0 ([1]; 3 mg/kg IV): 1.00 | T/C on day 7 ([1]; 3 mg/kg IV): 0.34* | T/C on day 13 ([1]; 3 mg/kg IV): 0.38 | T/C on day 0 ([1]; 6 mg/kg IV): 1.00 | T/C on day 7 ([1]; 6 mg/kg IV): 0.22** | T/C on day 13 ([1]; 6 mg/kg IV): 0.07**

CN(C)CCCOc1cc(F)c(-c2c(Cl)nc3ncnn3c2NCC(F)(F)F)c(F)c1.Cl [Example 4a, 5-Chloro-6-{4-[3-(dimethylamino)propoxy]-2,6-difluorophenyl}-N-(2,2,2-trifluoroethyl)[1,2,4]triazolo[1,5-a]pyrimidin-7-amine Hydrogen chloride Salt]
tumor growth inhibition (activity call) [1, 3]: not at 1 mg/kg | tumor growth inhibition (activity call) [1, 4]: active | T/C on day 0 ([1]; 1 mg/kg IV): 1.00 | T/C on day 7 ([1]; 1 mg/kg IV): 0.80 | T/C on day 13 ([1]; 1 mg/kg IV): 0.79 | T/C on day 0 ([1]; 3 mg/kg IV): 1.00 | T/C on day 7 ([1]; 3 mg/kg IV): 0.20** | T/C on day 13 ([1]; 3 mg/kg IV): 0.19** | T/C on day 0 ([1]; 6 mg/kg IV): 1.00 | T/C on day 7 ([1]; 6 mg/kg IV): 0.21** | T/C on day 13 ([1]; 6 mg/kg IV): 0.14** | A340 Compound/A340 Control [2]: 8.1

C[C@H](Nc1c(-c2c(F)cc(OCCCN(C)C)cc2F)c(Br)nc2ncnn12)C(F)(F)F [Example 25, 5-Bromo-6-{4-[3-(dimethylamino)propoxy]-2,6-difluorophenyl}-N-[(1S)-2,2,2-trifluoro-1-methylethyl][1,2,4]triazolo[1,5-a]pyrimidin-7-amine]
A340 Compound/A340 Control [2]: 7.2

CC(=O)O[C@H]1C(=O)[C@@]2(C)[C@H]([C@H](OC(=O)c3ccccc3)[C@]3(O)C[C@H](OC(=O)[C@H](O)[C@@H](NC(=O)c4ccccc4)c4ccccc4)C(C)=C1C3(C)C)[C@]1(OC(C)=O)CO[C@@H]1C[C@@H]2O [Paclitaxel, reference compound]
A340 Compound/A340 Control [2]: 8.5

CC[C@]1(O)C[C@H]2CN(CCc3c([nH]c4ccccc34)[C@@](C(=O)OC)(c3cc4c(cc3OC)N(C=O)[C@H]3[C@@](O)(C(=O)OC)[C@H](OC(C)=O)[C@]5(CC)C=CCN6CC[C@]43[C@@H]65)C2)C1 [Vincristine, reference compound]
A340 Compound/A340 Control [2]: 0
